{
  "source": "patent US8247211B2",
  "about": "“Glycopeptide antibiotics” (American Cyanamid Company, priority 2001, dated 2012)",
  "test_in_all_cases": "In vitro antibacterial evaluation: minimum inhibitory concentration (MIC), broth dilution method",
  "format_in_all_cases": "cell-based",
  "key": {"[1]": {"test_system": "Streptococcus sp.", "settings": "broth dilution, 5×10^5 CFU/mL, 18 hours at 35° C.", "summary_of_the_method": "(§1)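 NCCLS M7-A2 broth dilution with Mueller-Hinton II, testing 64-0.06 μg/mL antibiotic against 5×10^5 CFU/mL inocula. Test strains include recent methicillin-, penicillin- or vancomycin-resistant clinical isolates. MIC is the lowest concentration preventing growth.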"}, "[2]": {"test_system": "Escherichia coli", "settings": "5×10^5 CFU/mL, 18 hours at 35° C.", "summary_of_the_method": "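Following NCCLS approved standard M7-A2, compounds are serially diluted from 64 to 0.06 μg/mL in Muller-Hinton II […] and inoculated at 5×10^5 CFU/mL; the MIC is the minimum concentration at which growth is inhibited.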"}, "[3]": {"test_system": "Enterococcus sp.", "settings": "broth dilution, 5×10^5 CFU/mL, 18 hours at 35° C.", "summary_of_the_method": "as §1"}, "[4]": {"test_system": "Staphylococcus sp.", "settings": "for MIC Staphylococcus aureus (ATCC 29213): strain ATCC 29213; for MIC Staphylococcus aureus (GC 1131): strain GC 1131; for MIC Staphylococcus aureus (GC 4541): strain GC 4541; for MIC Staphylococcus aureus (GC 4542): strain GC 4542; for MIC Staphylococcus aureus-SMITH (GC 4543): strain GC 4543; for MIC Staphylococcus aureus (GC 4544): strain GC 4544; for MIC Staphylococcus aureus (GC 4545): strain GC 4545; for MIC Staphylococcus haemolyticus (GC 4546): strain GC 4546; for MIC Coagulase Negative Staphylococcus (GC 4547): strain GC 4547; for MIC Coagulase Negative Staphylococcus (GC 4548): strain GC 4548; for MIC Coagulase Negative Staphylococcus (GC 4549): strain GC 4549; for MIC Coagulase Negative Staphylococcus (GC 4551): strain GC 4551; for MIC Coagulase Negative Staphylococcus (ID-3941): strain ID-3941", "summary_of_the_method": "as §1"}, "[5]": {"settings": "broth dilution, 18 hours at 35° C."}},
  "data": [
    {"smiles": "CCCCCC1OCC2OC(OC3C(CO)OC(Oc4ccc(CC5NC(=O)C(C(C)c6ccccc6)NC(=O)CNC(=O)C(CO)NC(=O)C(C(O)C6CNC(=N)N6C6OC(CO)C(O)C(O)C6O)NC(=O)C(C(O)C6CNC(=N)N6)NC5=O)cc4)C(O)C3O)C(O)C(O)C2O1", "note": "(stereo not drawn) [Example 108, Cyclo[glycyl-β-methylphenylalanyl-O-[4-O-(4,6-O-hexylidenehexonyranosyl)hexopyranosyl]-tyrosyl-3-(2-iminoimidazolidin-4-yl)seryl-3-(3-hexopyranosyl-2-iminoimidazolidin-4-yl)-serylseryl]]", "values": [
      {"measurement": "MIC Streptococcus agalactiae (GC 4564)", "setting": "[1]", "result": "<0.5", "unit": "µg/mL"},
      {"measurement": "MIC Streptococcus pneumoniae (GC 4565)", "setting": "[1]", "result": "<0.5", "unit": "µg/mL"},
      {"measurement": "MIC Streptococcus pyogenes (ID-3187)", "setting": "[1]", "result": "<0.5", "unit": "µg/mL"},
      {"measurement": "MIC Escherichia coli (ATCC 25922)", "setting": "[2]", "result": 32, "unit": "µg/mL"},
      {"measurement": "MIC Enterococccus avium (GC 4558)", "setting": "[3]", "result": 2, "unit": "µg/mL"},
      {"measurement": "MIC Enterococccus faecalis (ATCC 29212)", "setting": "[3]", "result": 2, "unit": "µg/mL"},
      {"measurement": "MIC Enterococccus faecalis (GC 4552)", "setting": "[3]", "result": 2, "unit": "µg/mL"},
      {"measurement": "MIC Enterococccus faecalis (GC 4553)", "setting": "[3]", "result": 2, "unit": "µg/mL"},
      {"measurement": "MIC Enterococccus faecalis (GC 4554)", "setting": "[3]", "result": 2, "unit": "µg/mL"},
      {"measurement": "MIC Enterococccus faecium (GC 2243)", "setting": "[3]", "result": 2, "unit": "µg/mL"},
      {"measurement": "MIC Enterococccus faecium (GC 4556)", "setting": "[3]", "result": 2, "unit": "µg/mL"},
      {"measurement": "MIC Enterococccus faecium (GC 4557)", "setting": "[3]", "result": 1, "unit": "µg/mL"},
      {"measurement": "MIC Enterococcus faecalis (GC 2242)", "setting": "[3]", "result": 2, "unit": "µg/mL"},
      {"measurement": "MIC Staphylococcus aureus (ATCC 29213)", "setting": "[4]", "result": 1, "unit": "µg/mL"},
      {"measurement": "MIC Staphylococcus aureus (ATCC 29213)", "setting": "[4]; [5]", "result": 1, "unit": "µg/mL"},
      {"measurement": "MIC Staphylococcus aureus (GC 1131)", "setting": "[4]", "result": 1, "unit": "µg/mL"},
      {"measurement": "MIC Staphylococcus aureus (GC 1131)", "setting": "[4]; [5]", "result": 1, "unit": "µg/mL"},
      {"measurement": "MIC Staphylococcus aureus (GC 4541)", "setting": "[4]", "result": 1, "unit": "µg/mL"},
      {"measurement": "MIC Staphylococcus aureus (GC 4541)", "setting": "[4]; [5]", "result": 1, "unit": "µg/mL"},
      {"measurement": "MIC Staphylococcus aureus (GC 4542)", "setting": "[4]", "result": 1, "unit": "µg/mL"},
      {"measurement": "MIC Staphylococcus aureus (GC 4542)", "setting": "[4]; [5]", "result": 1, "unit": "µg/mL"},
      {"measurement": "MIC Staphylococcus aureus-SMITH (GC 4543)", "setting": "[4]; 18 hours at 35° C.", "result": 1, "unit": "µg/mL"},
      {"measurement": "MIC Staphylococcus aureus-SMITH (GC 4543)", "setting": "[4]; [5]", "result": 1, "unit": "µg/mL"},
      {"measurement": "MIC Staphylococcus aureus (GC 4544)", "setting": "[4]", "result": 1, "unit": "µg/mL"},
      {"measurement": "MIC Staphylococcus aureus (GC 4544)", "setting": "[4]; [5]", "result": 1, "unit": "µg/mL"},
      {"measurement": "MIC Staphylococcus aureus (GC 4545)", "setting": "[4]", "result": 1, "unit": "µg/mL"},
      {"measurement": "MIC Staphylococcus aureus (GC 4545)", "setting": "[4]; [5]", "result": 1, "unit": "µg/mL"},
      {"measurement": "MIC Staphylococcus haemolyticus (GC 4546)", "setting": "[4]", "result": 1, "unit": "µg/mL"},
      {"measurement": "MIC Staphylococcus haemolyticus (GC 4546)", "setting": "[4]; [5]", "result": 1, "unit": "µg/mL"},
      {"measurement": "MIC Coagulase Negative Staphylococcus (GC 4547)", "setting": "[4]", "result": 1, "unit": "µg/mL"},
      {"measurement": "MIC Coagulase Negative Staphylococcus (GC 4547)", "setting": "[4]; [5]", "result": 1, "unit": "µg/mL"},
      {"measurement": "MIC Coagulase Negative Staphylococcus (GC 4548)", "setting": "[4]", "result": "<0.5", "unit": "µg/mL"},
      {"measurement": "MIC Coagulase Negative Staphylococcus (GC 4548)", "setting": "[4]; [5]", "result": "<0.5", "unit": "µg/mL"},
      {"measurement": "MIC Coagulase Negative Staphylococcus (GC 4549)", "setting": "[4]", "result": 1, "unit": "µg/mL"},
      {"measurement": "MIC Coagulase Negative Staphylococcus (GC 4549)", "setting": "[4]; [5]", "result": 1, "unit": "µg/mL"},
      {"measurement": "MIC Coagulase Negative Staphylococcus (GC 4551)", "setting": "[4]", "result": 1, "unit": "µg/mL"},
      {"measurement": "MIC Coagulase Negative Staphylococcus (GC 4551)", "setting": "[4]; [5]", "result": 1, "unit": "µg/mL"},
      {"measurement": "MIC Coagulase Negative Staphylococcus (ID-3941)", "setting": "[4]", "result": 1, "unit": "µg/mL"},
      {"measurement": "MIC Coagulase Negative Staphylococcus (ID-3941)", "setting": "[4]; [5]", "result": 1, "unit": "µg/mL"}
    ]}
  ]
}
